# Source: patent publication US20240343727A1, “PYRIDAZINONE OR PYRIDINONE COMPOUNDS, PREPARATION METHODS AND USES THEREOF” (InventisBio Co., Ltd., priority 2021, published 2024)
# Biological target: T1, PARP7 (Homo sapiens, UniProt Q7Z3E1)
# T1 sequence (Q7Z3E1 1-657): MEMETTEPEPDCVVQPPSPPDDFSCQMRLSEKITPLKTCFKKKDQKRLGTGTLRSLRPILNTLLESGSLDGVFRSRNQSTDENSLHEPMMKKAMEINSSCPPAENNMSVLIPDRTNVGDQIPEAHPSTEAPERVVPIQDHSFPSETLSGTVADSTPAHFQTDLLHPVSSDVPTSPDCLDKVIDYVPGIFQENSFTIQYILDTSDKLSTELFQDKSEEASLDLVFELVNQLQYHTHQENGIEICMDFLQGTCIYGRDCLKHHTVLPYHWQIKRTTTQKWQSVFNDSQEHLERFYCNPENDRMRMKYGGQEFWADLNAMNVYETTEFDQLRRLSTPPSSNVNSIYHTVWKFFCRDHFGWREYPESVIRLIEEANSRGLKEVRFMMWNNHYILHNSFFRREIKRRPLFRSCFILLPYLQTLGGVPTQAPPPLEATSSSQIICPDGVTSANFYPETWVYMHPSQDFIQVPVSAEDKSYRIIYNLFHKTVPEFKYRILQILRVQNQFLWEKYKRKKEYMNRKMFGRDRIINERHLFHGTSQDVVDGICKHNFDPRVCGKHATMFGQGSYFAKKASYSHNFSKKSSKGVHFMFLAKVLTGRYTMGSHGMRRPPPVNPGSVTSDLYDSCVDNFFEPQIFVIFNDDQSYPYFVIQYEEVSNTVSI
# Test: PARP7 TR-FRET assay (binding, displacement of biotinylated Probe A)
# Conditions: 6 nM PARP7, 2 nM Probe A, 25° C., 30 min
# Outline: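 Compound displacement of biotinylated Probe A (2 nM) from PARP7 (6 nM) measured by TR-FRET in HEPES pH 8.0 buffer, 30 min at 25° C. Detection used ULight-anti 6xHis (4 nM) plus Eu-streptavidin (0.25 nM) for 30 min, reading the 665/615 nm ratio. % inhibition was taken against DMSO and no-enzyme wells, and IC50 from a Hill fit.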
row,Compound,IC50
1,C[C@@H]1CN(c2n[nH]c(=O)c3cccc(F)c23)C[C@H](CC(=O)N2CCN(c3ncc(C(F)(F)F)cn3)CC2)O1 (stereo in doubt) [Compound 119],> 1000 nM
2,C[C@H]1CN(c2n[nH]c(=O)c3cccc(F)c23)C[C@@H](CC(=O)N2CCN(c3ncc(C(F)(F)F)cn3)CC2)O1 (stereo in doubt) [Compound 120],100 to 1000 nM
3,O=C(CO[C@H]1C[C@H](CC2CC2)Oc2c1n[nH]c(=O)c2C(F)(F)F)N1CCN(c2ncc(C(F)(F)F)cn2)CC1 (stereo in doubt) [Compound 184],> 1000 nM
4,Cc1c(C(F)(F)F)c(Oc2cccc(C(=O)N3CCN(c4ncc(C(F)(F)F)cn4)CC3)c2)n[nH]c1=O [Compound 17],> 1000 nM
5,O=C(c1cccc(Oc2n[nH]c(=O)cc2C(F)(F)F)c1)N1CCN(c2ncc(C(F)(F)F)cn2)CC1 [Compound 18],> 1000 nM
6,Cc1c(Oc2cc(Cl)cc(C(=O)N3CCN(c4ncc(C(F)(F)F)cn4)CC3)c2)n[nH]c(=O)c1C(F)(F)F [Compound 22],100 to 1000 nM
7,Cc1c(Oc2cc(C(=O)N3CCN(c4ncc(C(F)(F)F)cn4)CC3)ccc2Cl)n[nH]c(=O)c1C(F)(F)F [Compound 24],100 to 1000 nM
8,Cc1c(Oc2cccc(C(=O)N3CC[C@H](Oc4ncc(C(F)(F)F)cn4)C3)c2)n[nH]c(=O)c1C(F)(F)F [Compound 28],> 1000 nM
9,Cc1c(Oc2cccc(C(=O)N3CC[C@@H](Oc4ncc(C(F)(F)F)cn4)C3)c2)n[nH]c(=O)c1C(F)(F)F [Compound 29],> 1000 nM
10,O=C(c1ccc2c(c1)N(c1cc(C(F)(F)F)c(=O)[nH]n1)CCO2)N1CCN(c2ncc(C(F)(F)F)cn2)CC1 [Compound 30],100 to 1000 nM
11,O=C([C@H]1CN(c2cc(C(F)(F)F)c(=O)[nH]n2)CCO1)N1CCN(c2ncc(C(F)(F)F)cn2)CC1 [Compound 33],100 to 1000 nM
12,C#Cc1cc(N2CCOCC2C(=O)N2CCN(c3ncc(C(F)(F)F)cn3)CC2)n[nH]c1=O (stereo not shown) [Compound 46],> 1000 nM
13,O=C(C[C@@H]1CCCN1c1n[nH]c(=O)c2ccccc12)N1CCN(c2ncc(C(F)(F)F)cn2)CC1 [Compound 47],> 1000 nM
14,CNc1c(Oc2cccc(C(=O)N3CCN(c4ncc(C(F)(F)F)cn4)CC3)c2)n[nH]c(=O)c1C(C)=O [Compound 74],> 1000 nM
15,C[C@@H]1C[C@H](OCC(=O)N2CCN(c3ncc(C(F)(F)F)cn3)CC2)c2n[nH]c(=O)c(C(F)(F)F)c2O1 [Compound 115],100 to 1000 nM
16,COC[C@@H]1C[C@H](OCC(=O)N2CCN(c3ncc(C(F)(F)F)cn3)CC2)c2n[nH]c(=O)c(C(F)(F)F)c2O1 [Compound 116],100 to 1000 nM
17,O=C(c1cccc(Oc2n[nH]c(=O)c(C(F)(F)F)c2C#CC2CC2)c1)N1CCN(c2ncc(C(F)(F)F)cn2)CC1 [Compound 139],100 to 1000 nM
18,O=C(CC1CN(c2cc(C(F)(F)F)c(=O)[nH]n2)c2cc(F)ccc2O1)N1CCN(c2ncc(Br)cn2)CC1 (stereo not shown) [Compound 142],< 100 nM
19,C[C@@H]1CN(C(=O)c2cc(Oc3n[nH]c(=O)c(C(F)(F)F)c3N3CC4(C3)CC(F)(F)C4)ccn2)CCN1c1cnc(C(F)(F)F)cn1 [Compound 147],< 100 nM
20,O=C(c1cc(Oc2n[nH]c(=O)c(C(F)(F)F)c2N2CC3(C2)CC(F)(F)C3)ccn1)N1CCN(c2ccc(C(F)(F)F)cn2)CC1 [Compound 148],< 100 nM
21,N#CC1(c2ccnc(N3CCN(C(=O)CC4CN(c5cc(C(F)(F)F)c(=O)[nH]n5)c5cc(Cl)ccc5O4)CC3)n2)CC1 (stereo not shown) [Compound 150],< 100 nM
22,C[C@@H]1CN(C(=O)c2cncc(Oc3n[nH]c(=O)c(C(F)(F)F)c3N3CC4(C3)CC(F)(F)C4)c2)CCN1c1cnc(C(F)(F)F)cn1 [Compound 155],< 100 nM
23,O=C(c1cccc(Oc2n[nH]c(=O)c(C(F)(F)F)c2N2CC3(CCC3)C2)c1)N1CCC(F)(F)CC1 [Compound 159],100 to 1000 nM

# Other lines, results leading:
row,IC50,Compound
1,< 100 nM,O=C(CO[C@@H]1C[C@@H](CC2CC2)Oc2c1n[nH]c(=O)c2C(F)(F)F)N1CCN(c2ncc(C(F)(F)F)cn2)CC1 (stereo in doubt) [Compound 144]
2,< 100 nM,C#Cc1c2c(n[nH]c1=O)[C@H](OCC(=O)N1CCN(c3ncc(C(F)(F)F)cn3)CC1)CCO2 [Compound 12]
3,< 100 nM,Cc1ccc(C(=O)N2CCN(c3ncc(C(F)(F)F)cn3)CC2)cc1Oc1n[nH]c(=O)c(C(F)(F)F)c1C [Compound 19]
4,< 100 nM,Cc1c(Oc2cncc(C(=O)N3CCN(c4ncc(C(F)(F)F)cn4)CC3)c2)n[nH]c(=O)c1C(F)(F)F [Compound 20]
5,< 100 nM,Cc1cc(Oc2n[nH]c(=O)c(C(F)(F)F)c2C)cc(C(=O)N2CCN(c3ncc(C(F)(F)F)cn3)CC2)c1 [Compound 23]
6,< 100 nM,Cc1c(Oc2ccc(F)c(C(=O)N3CCN(c4ncc(C(F)(F)F)cn4)CC3)c2)n[nH]c(=O)c1C(F)(F)F [Compound 25]
7,< 100 nM,O=C([C@@H]1COCCN1c1cc(C(F)(F)F)c(=O)[nH]n1)N1CCN(c2ncc(C(F)(F)F)cn2)CC1 [Compound 36]
8,< 100 nM,N#Cc1ccc(N2CCN(C(=O)[C@@H]3COCCN3c3cc(C(F)(F)F)c(=O)[nH]n3)CC2)nc1 [Compound 37]
9,< 100 nM,C[C@@H]1C[C@@H](OCC(=O)N2CCN(c3ncc(C(F)(F)F)cn3)CC2)c2n[nH]c(=O)c(C(F)(F)F)c2O1 [Compound 56]
10,< 100 nM,O=C(CC[C@@H]1COCCN1c1cc(C(F)(F)F)c(=O)[nH]n1)N1CCN(c2ncc(C(F)(F)F)cn2)CC1 [Compound 58]
11,< 100 nM,O=C(c1cccc(Oc2n[nH]c(=O)c(C(F)(F)F)c2N2CC3(CC3)C2)c1)N1CCN(c2ncc(C(F)(F)F)cn2)CC1 [Compound 59]
12,< 100 nM,N#CC1CN(c2c(Oc3cccc(C(=O)N4CCN(c5ncc(C(F)(F)F)cn5)CC4)c3)n[nH]c(=O)c2C(F)(F)F)C1 [Compound 60]
13,< 100 nM,CNC1CN(c2c(Oc3cccc(C(=O)N4CCN(c5ncc(C(F)(F)F)cn5)CC4)c3)n[nH]c(=O)c2C(F)(F)F)C1 [Compound 61]
14,< 100 nM,Cc1c(Sc2cccc(C(=O)N3CCN(c4ncc(C(F)(F)F)cn4)CC3)c2)n[nH]c(=O)c1C(F)(F)F [Compound 62]
15,< 100 nM,Cc1c(Oc2cc(C(=O)N3CCN(c4ncc(C(F)(F)F)cn4)CC3)ccc2C2CC2)n[nH]c(=O)c1C(F)(F)F [Compound 64]
16,< 100 nM,Cc1ccc(Oc2n[nH]c(=O)c(C(F)(F)F)c2C)cc1C(=O)N1CCN(c2ncc(C(F)(F)F)cn2)CC1 [Compound 65]

row,IC50,Compound
1,< 100 nM,Cc1c(Oc2cccc(C(=O)N3CCN(c4ncc(C(F)(F)F)s4)CC3)c2)n[nH]c(=O)c1C(F)(F)F [Compound 66]
2,< 100 nM,O=C(c1cccc(Oc2n[nH]c(=O)c(C(F)(F)F)c2N2CC3CC3C2)c1)N1CCN(c2ncc(C(F)(F)F)cn2)CC1 (stereo not shown) [Compound 68]
3,< 100 nM,CN1CC2(C1)CN(c1c(Oc3cccc(C(=O)N4CCN(c5ncc(C(F)(F)F)cn5)CC4)c3)n[nH]c(=O)c1C(F)(F)F)C2 [Compound 69]
4,< 100 nM,O=C(c1cccc(Oc2n[nH]c(=O)c(C(F)(F)F)c2N2CC3(CCC3)C2)c1)N1CCN(c2ncc(C(F)(F)F)cn2)CC1 [Compound 70]
5,< 100 nM,O=C(c1cccc(Oc2n[nH]c(=O)c(C(F)(F)F)c2N2CC(C(F)F)C2)c1)N1CCN(c2ncc(C(F)(F)F)cn2)CC1 [Compound 72]
6,< 100 nM,C#Cc1c(C)c(Oc2cccc(C(=O)N3CCN(c4ncc(C(F)(F)F)cn4)CC3)c2)n[nH]c1=O [Compound 75]
7,< 100 nM,Cc1c(Nc2cccc(C(=O)N3CCN(c4ncc(C(F)(F)F)cn4)CC3)c2)n[nH]c(=O)c1C(F)(F)F [Compound 76]
8,< 100 nM,Cc1c(N(C)c2cccc(C(=O)N3CCN(c4ncc(C(F)(F)F)cn4)CC3)c2)n[nH]c(=O)c1C(F)(F)F [Compound 77]
9,< 100 nM,CN(C)C1CN(c2c(Oc3cccc(C(=O)N4CCN(c5ncc(C(F)(F)F)cn5)CC4)c3)n[nH]c(=O)c2C(F)(F)F)C1 [Compound 82]
10,< 100 nM,CN(C)c1c(Oc2cccc(C(=O)N3CCN(c4ncc(C(F)(F)F)cn4)CC3)c2)n[nH]c(=O)c1C(F)(F)F [Compound 83]
11,< 100 nM,O=C(c1cncc(Oc2n[nH]c(=O)c(C(F)(F)F)c2N2CC3(CCC3)C2)c1)N1CCN(c2ncc(C(F)(F)F)cn2)CC1 [Compound 84]
12,< 100 nM,O=C(c1cccc(Oc2n[nH]c(=O)c(C(F)(F)F)c2N2CC(F)C2)c1)N1CCN(c2ncc(C(F)(F)F)cn2)CC1 [Compound 85]
13,< 100 nM,O=C(OC[C@@H]1CCCN1c1cc(C(F)(F)F)c(=O)[nH]n1)N1CCN(c2ncc(C(F)(F)F)cn2)CC1 [Compound 87]
14,< 100 nM,O=C(CC[C@@H]1CCCN1c1n[nH]c(=O)c2c(F)cccc12)N1CCN(c2ncc(C(F)(F)F)cn2)CC1 [Compound 97]
15,< 100 nM,Cc1c(N2CCC[C@H]2CCC(=O)N2CCN(c3ncc(C(F)(F)F)cn3)CC2)n[nH]c(=O)c1C(F)(F)F [Compound 127]
16,< 100 nM,N#Cc1ccc2c(c1)N(c1cc(C(F)(F)F)c(=O)[nH]n1)CC(CC(=O)N1CCN(c3ncc(C(F)(F)F)cn3)CC1)O2 (stereo not shown) [Compound 136]
